Data from patent publication US11254640B2, “N-substituted indoles and other heterocycles for treating brain disorders” (The Regents of the University of California, priority 2019, dated 2022).
Entries after “also recorded” stand apart in the source; their conditions may differ. Counter-ions that a name gives are not always drawn. Like-named read-outs stand apart in the source and are kept apart here.

Tests used:
cortical neurons = assay: Dendritogenesis assay, Sholl analysis; type: cell-based, rat; details: for Emax at 10 µM: Rattus norvegicus, Cortical neurone, Nmax with vehicle (DMSO) = 0% and ketamine = 100%, read-out: % efficacy in sholls; for dendritic arbor complexity / neuronal growth (Nmax of Sholl plots): cortical neurons; for Emax at 10 µM / dendritic arbor complexity / neuronal growth (Nmax of Sholl plots): 10 μM
Text: Dendritogenesis Assays. Phenotypic screening has historically proven more successful than target-based approaches for identifying drugs with novel mechanisms of action. Having established a simple and robust method for accessing isoDMT analogs, tested next was their ability to increase dendritic arbor complexity in cultures of cortical neurons using a phenotypic assay. Following treatment, neurons were fixed and visualized using an antibody against MAP2—a cytoskeletal protein localized to the somatodendritic compartment of neurons. Sholl analysis was then performed, and the maximum number of crossings (Nmax) was used as a quantitative metric of dendritic arbor complexity. For statistical comparisons between specific compounds, the raw Nmax values were compared. Percent efficacies were determined by setting the Nmax values for the vehicle (DMSO) and positive (ketamine) controls equal to 0% and 100%, respectively.
Animals. For the dendritogenesis experiments, timed pregnant Sprague Dawley rats were obtained from Charles River Laboratories (Wilmington, Mass.). For the head-twitch response assay, male and female C57BL/6J mice were obtained from Jackson Laboratory (Sacramento, Calif.). Mice were housed in a temperature and humidity-controlled room maintained on a 12-h light/dark cycle in groups of 4-5 (same sex). Animals weighed between 17 and 30 g at the time of the experiments. All experimental procedures involving rodents were approved by the UC Davis Institutional Animal Care and Use Committee (IACUC) and adhered to principles described in the National Institutes of Health Guide for the Care and Use of Laboratory Animals. The University of California, Davis and the University of California, San Francisco are accredited by the Association for Assessment and Accreditation of Laboratory Animal Care International (AAALAC).
Dendritogenesis—Sholl Analysis. Dendritogenesis experiments were performed following a previously published method with slight modifications. Neurons were plated in 96-well format (200 μL of media per well) at a density of approximately 15,000 cells/well in Neurobasal (Life Technologies) containing 1% penicillin-streptomycin, 10% heat-inactivated fetal bovine serum, and 0.5 mM glutamine. After 24 h, the medium was replaced with Neurobasal containing 1× B27 supplement (Life Technologies), 1% penicillin-streptomycin, 0.5 mM glutamine, and 12.5 μM glutamate. After 3 days in vitro (DIV3), the cells were treated with compounds. All compounds tested in the dendritogenesis assays were treated at 10 μM unless noted otherwise. Stock solutions of the compounds in DMSO were first diluted 100-fold in Neurobasal before an additional 10-fold dilution into each well (total dilution=1:1000; 0.1% DMSO concentration). Treatments were randomized. After 1 h, the media was removed and replaced with new Neurobasal media containing 1× B27 supplement, 1% penicillin-streptomycin, 0.5 mM glutamine, and 12.5 μM glutamate. The cells were allowed to grow for an additional 71 h. At that time, neurons were fixed by removing 80% of the media and replacing it with a volume of 4% aqueous paraformaldehyde (Alfa Aesar) equal to 50% of the working volume of the well. Then, the cells were incubated at room temperature for 20 min before the fixative was aspirated and each well washed twice with DPBS. Cells were permeabilized using 0.2% Triton X-100 (ThermoFisher) in DPBS for 20 minutes at room temperature without shaking. Plates were blocked with antibody diluting buffer (ADB) containing 2% bovine serum albumin (BSA) in DPBS for 1 h at room temperature. Then, plates were incubated overnight at 4° C. with gentle shaking in ADB containing a chicken anti-MAP2 antibody (1:10,000; EnCor, CPCA-MAP2). The next day, plates were washed three times with DPBS and once with 2% ADB in DPBS. […]

5HT2A sensor [1] = assay: 5HT2A sensor assay, agonist mode (sLight1.3s HEK293T stable line); type: cell-based; details: percent relative to 5-HT at 100 uM
In short: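 Agonist mode in HEK293T cells stably expressing the sLight1.3 5HT2A sensor, washed into HBSS; compounds at final 100 μM, 10 μM and 100 nM (0.1% DMSO), triplicate wells. Membrane fluorescence (ex 460, em 512-542 nm) imaged before and after addition; dFF=(Fsat−Fapo)/Fapo, expressed as percent activation (DMSO=0, 5HT=100).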

5HT2A sensor [2] = assay: 5HT2A sensor assay, antagonist mode (sLight1.3s HEK293T stable line); type: cell-based; details: relative to 5-HT at 100 nM
In short: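 Inactivation score is computed from membrane dFF as (dFF(compound+5HT)−dFF(5HT))/dFF(5HT), with HBSS-only fluorescence as Fapo. Final concentrations: 5-HT 100 nM added first, then compound at 100 nM, 10 μM or 100 μM in 0.1% DMSO. Triplicates; FITC imaging, 5 fields per well.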

5HT2A = biological target: T1, 5HT2A (Homo sapiens, UniProt P28223); assay: Calcium flux assay (Calcium secondary messenger pathway); type: cell-based; details: agonist mode
T1 construct: expressed in transfected cells
T1 sequence (P28223 whole entry): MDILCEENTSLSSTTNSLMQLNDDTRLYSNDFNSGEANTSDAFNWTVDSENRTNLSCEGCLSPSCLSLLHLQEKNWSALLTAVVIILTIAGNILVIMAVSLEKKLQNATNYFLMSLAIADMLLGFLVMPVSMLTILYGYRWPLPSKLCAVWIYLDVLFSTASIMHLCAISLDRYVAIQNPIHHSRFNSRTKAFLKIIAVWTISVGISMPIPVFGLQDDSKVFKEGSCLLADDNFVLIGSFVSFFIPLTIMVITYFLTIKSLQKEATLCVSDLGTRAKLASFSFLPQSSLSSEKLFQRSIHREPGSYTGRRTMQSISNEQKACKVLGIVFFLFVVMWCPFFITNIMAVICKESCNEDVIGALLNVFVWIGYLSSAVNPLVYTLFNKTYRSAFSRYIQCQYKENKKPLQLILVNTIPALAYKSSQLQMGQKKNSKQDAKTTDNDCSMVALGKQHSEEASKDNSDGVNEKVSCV
In short: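 Gq-coupled calcium mobilization in cells stably expressing 5HT2A, loaded 30–60 min at 37 °C with calcium-sensitive dye in HBSS/20 mM Hepes with 2.5 mM probenecid. Compound added 5 s into a 2-min FLIPR Tetra fluorescence read at room temperature; % activity relative to vehicle and maximal control-ligand RFU.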

rat cortical neurons = assay: Neurite outgrowth assay; type: cell-based; details: Cortical neurone, 1 hour treatment at DIV 4, analysed DIV 7, fold vs DMSO control
In short: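 Embryonic day 18 rat cortical neurons, 20,000 cells/well in Neurobasal/B27, were exposed at DIV 4 to 10 μM compound for 1 hour, then washed out. At DIV 7, β-III-tubulin immunostaining and automated imaging gave neurite length, branch points, root and extremity counts, reported as fold-change versus DMSO; triplicates.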

Q: With `CN(C)CCn1ccc2cc(OCc3ccccc3)ccc21` (as salt: fumarate) [Example 9, 2-(5-(benzyloxy)-1H-indol-1-yl)-N,N-dimethylethan-1-amine] as the compound, how does the melting point read?
A: Its melting point is 133 to 135 °C.

Q: What does the source list for `CN(C)CCn1ccc2ccccc21.O=C(O)/C=C/C(=O)O` [Example 2, 2-(1H-indol-1-yl)-N,N-dimethylethan-1-amine]?
A: Emax at 10 µM (cortical neurons): 87%; psychoplastogenic efficacy and potency, concentration-response (Nmax) (cortical neurons; concentrations ranging from 10 μM to 10 pM (FIG. 6)): comparable maximum efficacies and had similar potencies as isosteric DMTs (1 and 28); dendritic arbor complexity / neuronal growth (Nmax of Sholl plots) (cortical neurons): increase dendritic arbor complexity to a comparable extent as DMT (1); also recorded: increased dendritic arbor complexity to a comparable extent as 1; melting point: 147 to 149 °C

Q: With `CN(C)CCn1ccc2ccc(F)cc21.O=C(O)/C=C/C(=O)O` [Example 14, 2-(6-fluoro-1H-indol-1-yl)-N,N-dimethylethan-1-amine] as the compound, how does the Emax at 10 µM (cortical neurons) read?
A: Its Emax at 10 µM is 88%.

Q: And the melting point?
A: Its melting point is 141 to 147 °C.

Q: For `Cc1cc2ccccc2n1CCN(C)C.O=C(O)/C=C/C(=O)O` [Example 16, N,N-dimethyl-2-(2-methyl-1H-indol-1-yl)ethan-1-amine], which Emax at 10 µM (cortical neurons) is on record?
A: The Emax at 10 µM was 104%.

Q: And the “dendritic arbor complexity / neuronal growth (Nmax of Sholl plots)” value (cortical neurons)?
A: The value was “well tolerated”.

Q: And the melting point?
A: The melting point was 131 to 133 °C.

Q: Which melting point does the source give for `CN(C)CCn1ccc2cc(F)c(F)cc21` (as salt: fumarate) [Example 17, 2-(5,6-difluoro-1H-indol-1-yl)-N,N-dimethylethan-1-amine] here?
A: The melting point was 162 to 165 °C.

Q: With `CN(C)CCc1cn(C)c2ccccc12` (as salt: fumarate) [Example 27, N,N-dimethyl-2-(1-methyl-1H-indol-3-yl)ethan-1-amine] as the compound, how does the melting point read?
A: Its melting point is 167 to 170 °C.

Q: For `CN(C)CCn1ccc2c(OCc3ccccc3)cccc21` (as salt: fumarate) [Example 8, 2-(4-(benzyloxy)-1H-indol-1-yl)-N,N-dimethylethan-1-amine], which melting point is on record?
A: The melting point was 145 to 150 °C.

Q: With `CN(C)CCCn1ccc2ccccc21.O=C(O)/C=C/C(=O)O` [Example 26, 3-(1H-indol-1-yl)-N,N-dimethylpropan-1-amine] as the compound, how does the Emax at 10 µM (cortical neurons) read?
A: Its Emax at 10 µM is 70%.

Q: What about the “dendritic arbor complexity / neuronal growth (Nmax of Sholl plots)” value (cortical neurons) of the same compound?
A: The value was “only a slight decrease in the Nmax value”.

Q: What about the melting point of the same compound?
A: The melting point was 129 to 131 °C.

Q: Which results are given for `CN(C)CCn1c2ccccc2c2ccccc21.O=C(O)/C=C/C(=O)O` [Example 24, 2-(9H-carbazol-9-yl)-N,N-dimethylethan-1-amine]?
A: Emax at 10 µM (cortical neurons): 86%; dendritic arbor complexity / neuronal growth (Nmax of Sholl plots) (cortical neurons): minimal effect on the ability of these molecules to promote neuronal growth; melting point: 182 to 184 °C

Q: With `CN(C)CCn1ccc2cccc(F)c21` (as salt: fumarate) [Example 15, 2-(7-fluoro-1H-indol-1-yl)-N,N-dimethylethan-1-amine] as the compound, how does the melting point read?
A: Its melting point is 168 to 170 °C.

Q: Which results are given for `CN(C)CCn1ccc2ccc([N+](=O)[O-])cc21.O=C(O)/C=C/C(=O)O` [Example 19, N,N-dimethyl-2-(6-nitro-1H-indol-1-yl)ethan-1-amine]?
A: Emax at 10 µM (cortical neurons): 85%; melting point: 159 to 164 °C

Q: With `CN(C)CCn1cccc1` (as salt: fumarate) [Example 23, N,N-dimethyl-2-(1H-pyrrol-1-yl)ethan-1-amine] as the compound, how does the melting point read?
A: The melting point was 174 to 180 °C.

Q: What does the source list for `CN(C)CCn1cnc2ccccc21.O=C(O)/C=C/C(=O)O` [Example 22, 2-(1H-benzo[d]imidazol-1-yl)-N,N-dimethylethan-1-amine]?
A: Emax at 10 µM (cortical neurons): 50%; dendritic arbor complexity / neuronal growth (Nmax of Sholl plots) (cortical neurons): minimal effect on the ability of these molecules to promote neuronal growth; melting point: 171 to 178 °C

Q: With `CN(C)CCn1ccc2c(F)cccc21` (as salt: fumarate) [Example 12, 2-(4-fluoro-1H-indol-1-yl)-N,N-dimethylethan-1-amine] as the compound, how does the melting point read?
A: The melting point was 145 to 149 °C.

Q: For `CN(C)C(=O)Cn1ccc2ccccc21` [Example 31, 2-(1H-indol-1-yl)-N,N-dimethylacetamide], which “dendritic arbor complexity / neuronal growth (Nmax of Sholl plots)” value (cortical neurons) is on record?
A: The value was “did not promote neuronal growth”.

Q: What about the melting point of the same compound?
A: The melting point was 58 to 61 °C.

Q: For `CN(C)CCn1ccc2cc(F)ccc21` (as salt: fumarate) [Example 13, 2-(5-fluoro-1H-indol-1-yl)-N,N-dimethylethan-1-amine], which melting point is on record?
A: Its melting point is 145 to 148 °C.

Q: For `CN(C)CCn1ccc2c(F)cc(F)cc21` (as salt: fumarate) [Example 18, 2-(4,6-difluoro-1H-indol-1-yl)-N,N-dimethylethan-1-amine], which melting point is on record?
A: The melting point was 141 to 145 °C.

Q: Which “5HT2A Agonist mean @ 100 nM (%)” value (5HT2A sensor [1]; 100 nM compound) does the source give for `FC(F)(F)Oc1ccc2c(ccn2CCN2CCOCC2)c1` [Example 52, 4-(2-(5-(trifluoromethoxy)-1H-indol-1-yl)ethyl)morpholine] here?
A: The value was “B (does not activate 5HT2A sensor assay in agonist mode)”.

Q: What about the “5HT2A Agonist mean @ 10 μM (%)” value (5HT2A sensor [1]; 10 μM compound) of the same compound?
A: Its value is “B (does not activate 5HT2A sensor assay in agonist mode)”.

Q: And the “5HT2A Agonist mean @ 100 μM (%)” value (5HT2A sensor [1]; 100 μM compound)?
A: The value was “A (activates 5HT2A sensor assay in agonist mode)”.

Q: What about the “5HT2A Antagonist mean @ 100 nM (%)” value (5HT2A sensor [2]; 100 nM compound) of the same compound?
A: Its value is “A (inhibits 5HT response by >100%)”.

Q: And the “5HT2A Antagonist mean @ 10 μM (%)” value (5HT2A sensor [2]; 10 μM compound)?
A: The value was “B (inhibits 5HT response by 75% to 100%)”.

Q: And the “5HT2A Antagonist mean @ 100 μM (%)” value (5HT2A sensor [2]; 100 μM compound)?
A: The value was “B (inhibits 5HT response by 75% to 100%)”.

Q: And the EC50 (5HT2A)?
A: Its EC50 is greater than 10 µM.

Q: And the fold induction at 10 µM (rat cortical neurons; read-out: Neurite Average Length @ 10 μM)?
A: Its fold induction at 10 µM is 1.5 to 3.

Q: What about the fold induction at 10 µM (rat cortical neurons; read-out: Neurite Branch Points: @ 10 μM) of the same compound?
A: Its fold induction at 10 µM is 1.5 to 3.

Q: For `CN(C)CCn1ccc2cc(Br)ccc21.O=C(O)/C=C/C(=O)O` [Example 20, 2-(5-bromo-1H-indol-1-yl)-N,N-dimethylethan-1-amine], which Emax at 10 µM (cortical neurons) is on record?
A: Its Emax at 10 µM is 117%.

Q: What about the melting point of the same compound?
A: The melting point was 140 to 142 °C.
